Test results taken from patent publication US4782159A, “Process for preparing beta-methyl-gamma-oxo-4-(4-oxo-1(4H)-pyridinyl) derivative of benzene butanoic acid” (Smith Kline & French Laboratories Limited, priority 1986, dated 1988).
“Also recorded” adds a separate entry of the source.

How the values were obtained:
[1] = biological target: T1, PDE (Peak III) (Felis catus, UniProt A0ABI7YEY2); test: Inhibition of Phosphodiesterases, PDE (Peak III)
T1 sequence (A0ABI7YEY2 1-1144): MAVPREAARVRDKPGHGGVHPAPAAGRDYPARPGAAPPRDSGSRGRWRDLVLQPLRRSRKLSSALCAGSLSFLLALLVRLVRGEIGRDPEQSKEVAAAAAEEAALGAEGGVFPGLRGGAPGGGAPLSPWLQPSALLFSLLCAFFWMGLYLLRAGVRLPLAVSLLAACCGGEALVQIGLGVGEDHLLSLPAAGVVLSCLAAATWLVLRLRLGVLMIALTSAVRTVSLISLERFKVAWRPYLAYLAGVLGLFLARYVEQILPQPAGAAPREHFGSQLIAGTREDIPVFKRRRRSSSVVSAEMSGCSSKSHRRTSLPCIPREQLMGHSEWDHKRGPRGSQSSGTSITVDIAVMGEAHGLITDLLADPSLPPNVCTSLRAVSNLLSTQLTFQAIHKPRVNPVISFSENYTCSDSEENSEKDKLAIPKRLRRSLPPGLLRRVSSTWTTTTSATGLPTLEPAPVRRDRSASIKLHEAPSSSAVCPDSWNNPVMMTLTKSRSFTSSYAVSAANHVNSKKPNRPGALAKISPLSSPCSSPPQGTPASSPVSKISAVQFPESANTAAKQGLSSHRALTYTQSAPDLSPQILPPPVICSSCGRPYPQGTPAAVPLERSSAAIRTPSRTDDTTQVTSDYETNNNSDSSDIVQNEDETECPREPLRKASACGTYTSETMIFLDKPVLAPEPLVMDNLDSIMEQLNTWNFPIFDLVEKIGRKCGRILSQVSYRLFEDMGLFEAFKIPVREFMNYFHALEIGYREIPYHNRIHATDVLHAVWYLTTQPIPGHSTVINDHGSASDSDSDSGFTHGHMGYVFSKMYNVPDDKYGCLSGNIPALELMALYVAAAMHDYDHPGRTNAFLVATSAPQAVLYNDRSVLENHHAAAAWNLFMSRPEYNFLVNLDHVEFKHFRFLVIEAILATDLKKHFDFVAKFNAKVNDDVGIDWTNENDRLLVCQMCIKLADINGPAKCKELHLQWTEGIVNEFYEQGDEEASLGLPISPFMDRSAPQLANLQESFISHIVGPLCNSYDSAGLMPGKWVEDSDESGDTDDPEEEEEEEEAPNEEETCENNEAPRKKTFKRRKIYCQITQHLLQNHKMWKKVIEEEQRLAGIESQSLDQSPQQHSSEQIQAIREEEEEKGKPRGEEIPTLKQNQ
Description: (§2) The enzyme was assayed by incubation at 37° for 4-30 min in 50 mM Tris, 5 mM MgCl2, pH 7.5 with [3-H] cyclic nucleotide (4×10^5 disintegrations min^-1) and [14-C] nucleotide 5' monophosphate (3×10^3 disintegrations min^-1). The assay was stopped by boiling, and the [3-H] […] The reaction mixture was diluted with 0.5 ml 100 mM HEPES (N-2-Hydroxyethylpiperazine-N'-2-ethanesulfonic acid), 100 mM NaCl, pH 8.5, and applied to the column. […] The recovery of product as judged by [14-C] recovery was approximately 80%. All assays were linear with time of incubation and concentration of enzyme over the range used in these experiments.

[2] = tested on: left ventricular dp/dt max; test: Cardiac Stimulant Activity--In vivo (Conscious Dogs); parameters: species or system dog
Description: The compound of formula (2) increased left ventricular dp/dt max in conscious dogs after intravenous administration at doses below 0.02 mg/kg. Oral administration caused positive inotropic responses at doses of 0.05 mg/kg and below.

[3] = biological target: T2, PDE (Peak II) (Felis catus, UniProt A0ABI7ZLD2); test: Inhibition of Phosphodiesterases, PDE (Peak II); assay type: biochemical, cat
T2 construct: DEAE-Sepharose CL-6B Peak II of cat heart high-speed supernatant
T2 sequence (A0ABI7ZLD2 1-921): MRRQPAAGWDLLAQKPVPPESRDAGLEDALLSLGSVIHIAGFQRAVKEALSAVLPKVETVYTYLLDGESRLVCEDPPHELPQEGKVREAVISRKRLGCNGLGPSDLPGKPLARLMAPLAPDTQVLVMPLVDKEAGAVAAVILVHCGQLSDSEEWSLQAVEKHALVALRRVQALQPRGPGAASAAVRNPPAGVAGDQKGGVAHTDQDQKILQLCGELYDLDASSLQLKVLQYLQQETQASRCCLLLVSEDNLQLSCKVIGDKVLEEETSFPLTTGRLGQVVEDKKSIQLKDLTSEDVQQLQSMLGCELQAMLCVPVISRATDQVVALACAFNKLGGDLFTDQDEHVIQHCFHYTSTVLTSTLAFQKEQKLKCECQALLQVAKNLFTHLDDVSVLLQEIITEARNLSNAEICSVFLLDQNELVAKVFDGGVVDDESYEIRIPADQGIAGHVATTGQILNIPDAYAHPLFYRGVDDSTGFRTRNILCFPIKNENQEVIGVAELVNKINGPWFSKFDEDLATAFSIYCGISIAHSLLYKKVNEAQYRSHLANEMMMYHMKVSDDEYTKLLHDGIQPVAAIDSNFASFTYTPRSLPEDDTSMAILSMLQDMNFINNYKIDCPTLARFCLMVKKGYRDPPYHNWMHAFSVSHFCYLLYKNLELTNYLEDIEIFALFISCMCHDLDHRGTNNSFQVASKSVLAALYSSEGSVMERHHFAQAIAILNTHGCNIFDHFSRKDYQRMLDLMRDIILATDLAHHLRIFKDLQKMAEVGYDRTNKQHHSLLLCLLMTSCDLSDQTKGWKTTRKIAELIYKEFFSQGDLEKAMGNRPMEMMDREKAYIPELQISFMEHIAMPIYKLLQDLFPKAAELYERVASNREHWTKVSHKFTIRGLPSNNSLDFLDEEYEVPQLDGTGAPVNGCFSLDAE
Excerpt: (§1) This specificity is an indication that the compound is likely to have a force/rate selectivity in its cardiac stimulant activity with a low potential for inducing arrythmias.

[4] = tested on: left ventricular dp/dt max (index of left ventricular contractility); test: Cardiac Stimulant Activity--In vivo (Anaesthetised Cats); parameters: species or system cat; conditions: intravenous
Excerpt: In anaesthetised cats pretreated with a ganglion blocker (mecamylamine or pempidine) and propranolol, the compound of formula (2) causes increases in left ventricular dp/dt max (this is an index of left ventricular contractility) when administered intravenously.

[5] = tested on: platelet aggregation induced by the endoperoxide mimetic U44069; test: Platelet Aggregation Inhibition--In vitro; assay type: cell-based; conditions: U44069 (10 μM), aspirin-treated (100 μM) human platelet rich plasma
Description: Platelet rich plasma (PRP) was prepared from whole human blood anti-coagulated with 1/10 volume acid citrate dextrose. The citrated blood was centrifuged at 700 g for 5 minutes and the PRP removed. The remaining red cells and plasma were centrifuged for a further 15 minutes at 900 g and the platelet poor plasma removed. This was then mixed with the PRP to give a final platelet count of 2-3×10^8 cells/ml.
PRP was divided into 0.5 ml aliquots which were preincubated for 2 minutes to 37° C. before being placed in the sample chamber of an HG aggregometer connected to a Teckman chart recorder.
Aspirin was added to a concentration of 100 μM.
Aggregation to the endoperoxide mimetic U44069 (9,11-epoxymethano-PGH2) was then examined in the absence and presence of a range of concentrations of the compound of formula (2).

[6] = tested on: histamine-induced bronchoconstriction; test: Bronchodilatation--In vivo (histamine-induced bronchoconstriction); parameters: species or system guinea-pig, Dunkin Hartley strain; conditions: i.v., one minute before histamine challenge
Description: Male guinea-pigs of the Dunkin Hartley strain (530 g±6 g) were anaesthetised with Sagatal (pentobarbital sodium) (90 mg/kg i.p.). Airway resistance was measured using a modification of the classical Konzett-Rossler technique (Versuchsanordnung zu Untersuchungen an der Bronchialmuskulatur. Naunyn-Schmiedebergs Arch. Exp. Path. Pharmak., 195: pp 71-74, (1940)). A dose of histamine which gave approximately 150% increase in airway resistance was selected for i.v. administration. Bolus doses of the compound of formula (2) was administered (i.v.) one minute before the histamine challenge.

[7] = tested on: PDE (Peak I); test: Inhibition of Phosphodiesterases, PDE (Peak I); assay type: biochemical, cat; conditions: at up to 10^-4 M
Excerpt: as §1

[8] = biological target: T2, PDE (Peak II); test: Substrate kinetics of PDE (Peak II) from cat heart; assay type: biochemical
Description: as §2

[9] = biological target: T1, PDE (Peak III); test: Substrate kinetics of PDE (Peak III) from cat heart; assay type: biochemical; parameters: DEAE-Sepharose Peak III from high-speed supernatant of cat heart homogenate
Description: as §2

[10] = tested on: PDE (Peak I); test: Substrate kinetics of PDE (Peak I) from cat heart; assay type: biochemical; conditions: for Relative Vmax: PDE (Peak I)

SMILES: Nc1cc(-c2ccncc2)c[nH]c1=O [Amrinone, reference compound]
- IC50 ([1]; PDE (Peak III), 1 μM cyclic AMP): 51.8 µM
- activity in comparison with the compound of formula (2) [2]: less active
- duration in comparison with the compound of formula (2) [2]: shorter duration

SMILES: CC1CC(=O)NN=C1c1ccc(-n2ccc(=O)cc2)cc1 (centres unmarked) [formula (2)]
- inhibition of PDE (Peak II) [3]: either no or weak inhibition
- ED50 ([4]; Felis catus, read-out: ED50 (dose to increase left ventricular dp/dt max by 50%), anaesthetised cats pretreated with ganglion blocker and propranolol): 0.04 µmol/kg
- changes in blood pressure or heart rate ([4]; anaesthetised cats): Minimal changes
- IC50 [5]: 0.08 ± 0.01 µM
- ED50 ([6]; Cavia porcellus, iv, read-out: ED50 (dose which reduced the histamine bronchoconstriction by 50%)): 1.8 µmol/kg
- minimal effective dose ([6]; Cavia porcellus, read-out: threshold dose): 0.01 µmol/kg
- effect on histamine-induced bronchoconstriction [6]: reduced the histamine-induced bronchoconstriction
- selectivity for PDE (Peak III) / phosphodiesterase type III ([1]; versus PDE (Peak I) and PDE (Peak II)): selective phosphodiesterase type III inhibitor; also recorded: selective PDE (Peak III) inhibitor
- inhibition of PDE (Peak I) [7]: no inhibition
- changes in blood pressure or heart rate [2]: without changes
- force-rate selectivity [2]: particularly beneficial

SMILES: Nc1nc2c(ncn2[C@@H]2O[C@@H]3COP(=O)(O)O[C@H]3[C@H]2O)c(=O)[nH]1 [cyclic GMP]
- Relative Vmax ([8]; PDE (Peak II)): 0.2
- affinity of PDE (Peak II) for substrate ([8]; in words): relatively low affinities
- Relative Vmax [9]: 0.4
- Relative Vmax ([10]; 50 μg/ml calmodulin added): 7.2
- Relative Vmax ([10]; without calmodulin): 1.1
- affinity of PDE (Peak I) for substrate ([10]; in words): high affinity
